From the NIST ThermoML archive (doi:10.1016/j.fluid.2016.10.026)

Assay: relative permittivity at zero frequency (dimensionless)
Conditions: 101 kPa, Liquid, capacitive

CC(=O)c1cccs1 [2-acetylthiophene]
Conditions	relative permittivity at zero frequency
278.15 K	32.38
280.65 K	32.01
283.15 K	31.64
285.65 K	31.28
288.15 K	30.87
290.65 K	30.47
293.15 K	29.94
295.65 K	29.69
298.15 K	29.19
300.65 K	28.92
303.15 K	28.47
305.65 K	28.14
308.15 K	27.76
310.65 K	27.43
313.15 K	27.05
315.65 K	26.75
318.15 K	26.32
320.65 K	25.95
323.15 K	25.68
325.65 K	25.33
328.15 K	25.02
330.65 K	24.7
333.15 K	24.33
335.65 K	23.98
338.15 K	23.6
